Patent US8603751B2, “Mycobacterial disease detection, treatment, and drug discovery” (priority 2006, dated 2013)

Target: DevR (also known as DosR or Rv3133c) dimerization (Mycobacterium tuberculosis, UniProt P9WMF9)
Assay: M-PFC Alamar Blue screen for inhibitors of DevR dimerization
Assay type: cell-based
Settings: for effect on DevR dimerization: M-PFC Alamar Blue assay in Msm, titration (FIG. 11); for concentration with the most dramatic effect on DevR dimerization: titration curves, FIG. 11

DevR (also known as DosR or Rv3133c) dimerization, sequence (P9WMF9 whole entry, looked up): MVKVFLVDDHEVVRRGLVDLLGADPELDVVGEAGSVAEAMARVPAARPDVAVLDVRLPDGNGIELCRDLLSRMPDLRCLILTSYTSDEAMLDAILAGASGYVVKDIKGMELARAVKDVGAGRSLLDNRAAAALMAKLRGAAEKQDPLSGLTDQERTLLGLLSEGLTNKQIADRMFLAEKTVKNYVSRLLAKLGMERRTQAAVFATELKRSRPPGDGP

| Structure (SMILES) | effect on DevR dimerization | concentration with the most dramatic effect on DevR dimerization [µg/mL] |
| --- | --- | --- |
| Cl.Cn1c(=N)n(CC(=O)c2cc(C(C)(C)C)c(O)c(C(C)(C)C)c2)c2ccccc21 [1-(3,5-di-tert-butyl-4-hydroxyphenyl)-2-(2-imino-3-methyl-2,3-dihydro-1H-benzimidazol-1-yl)ethanone hydrochloride] | inhibitory effect against DevR dimerization at low concentrations | 12.5 |
| CC(=O)NS(=O)(=O)c1ccc(NC(=O)CCc2ccccc2)cc1 [N-(4-[(acetylamino)sulfonyl]phenyl)-3-phenylpropanamide] | inhibitory effect against DevR dimerization at low concentrations | 12.5 |
